Source: article PMC3898838, “Design, Synthesis, and Biological Evaluation of an Allosteric Inhibitor of HSET that Targets Cancer Cells with Supernumerary Centrosomes” (Chemistry & Biology, 2013)

Key:
[1] = target: T1, full-length, N-terminal, 6His-tagged human HSET (Homo sapiens, UniProt Q9BW19); assay: In vitro enzymatic ATPase assay (ADP-Glo), MT-stimulated activity; assay type: biochemical
T1 construct: The protocol was optimized for use with full-length, N-terminal, 6His-tagged HSET and KSP; made in house; host or cells: Sf9 insect cells (baculovirus, pFastBac1)
T1 sequence (Q9BW19 1-673): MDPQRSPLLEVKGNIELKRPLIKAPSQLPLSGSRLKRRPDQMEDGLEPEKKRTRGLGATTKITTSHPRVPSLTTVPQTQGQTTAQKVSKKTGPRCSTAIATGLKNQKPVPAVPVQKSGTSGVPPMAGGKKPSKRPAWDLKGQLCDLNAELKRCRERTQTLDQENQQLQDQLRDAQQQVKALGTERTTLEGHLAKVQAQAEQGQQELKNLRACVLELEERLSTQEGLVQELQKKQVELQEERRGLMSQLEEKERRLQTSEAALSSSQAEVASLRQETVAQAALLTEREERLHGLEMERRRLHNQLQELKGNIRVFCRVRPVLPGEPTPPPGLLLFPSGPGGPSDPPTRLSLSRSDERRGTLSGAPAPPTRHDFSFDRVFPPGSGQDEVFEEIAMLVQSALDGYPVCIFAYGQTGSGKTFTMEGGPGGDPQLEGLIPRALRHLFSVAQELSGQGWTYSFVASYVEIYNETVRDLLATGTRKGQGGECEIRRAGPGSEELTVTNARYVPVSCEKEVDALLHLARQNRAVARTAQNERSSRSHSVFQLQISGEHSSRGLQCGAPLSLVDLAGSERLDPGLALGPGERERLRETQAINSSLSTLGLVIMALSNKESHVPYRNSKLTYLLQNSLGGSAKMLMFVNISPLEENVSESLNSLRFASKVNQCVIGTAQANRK
Text: The similarity decreases to 56% in the loop 5 binding cleft alone (residues 422–432; Figure 1A). Given the high degree of similarity between the proteins, and the potential for selective binding in the loop 5 cleft, the chemogenomics principle that similar proteins bind similar ligands was applied to HSET and KSP, and an in silico model for HSET binding was developed based on nearly 500 existing inhibitors of KSP in the ChEMBL database (see Experimental Procedures for details; [Klabunde, 2007]). Using the model parameters, we selected 200 compounds (in silico) from 20 million possibilities and further triaged them into 50 ligands that scored highest in the bioactivity model. We acquired and tested these ligands for in vitro activity using an ADP-Glo enzymatic assay (see Experimental Procedures for details; Figure 1B).
The protocol was optimized for use with full-length, N-terminal, 6His-tagged HSET and KSP, and measured the MT-stimulated activity of the proteins. Inhibition of the […] of HSET/KSP was observed spectrophotometrically by coupling the hydrolysis of ATP to oxidation of NADH via pyruvate kinase/lactate dehydrogenase reactions. The assay was initiated by […] an assay mixture containing the following components (final concentration): 6 nM protein, 0.07 mg/ml MTs (University Biologicals), […], 2 mM ATP, 2.7 mM MgCI, 1 mM phospho(enol)-pyruvate, 0.2 mM NADH, 50 μg/ml lactate dehydrogenase, 100 μg/ml pyruvate kinase, and various concentrations of inhibitor all in 50 mM Na PIPES (pH 6.8) at 37°C. The ADP-Glo detection assay (Promega) was performed as described in the manufacturer’s instructions. All compound additions were performed using a multidrop BioMek Nxp (Beckman Coulter). Plates were read using a Pherastar microplate reader (BMG Labtech).

NHDF cells = assay: Immunofluorescence, mitotic spindle morphology; assay type: cell-based, human; conditions: 100 μM and 200 μM, 2.5 hr
Text: Using IF, we next examined the mitotic phenotypes induced by CW069 in N1E-115 and NHDF cells, with a strong focus on centrosome numbers and mitotic spindle morphology. Antibodies against α-tubulin, CDK5RAP2, and DAPI were employed to visualize MTs, centrosomes, and DNA, respectively. We hypothesized that small-molecule inhibition of HSET would give rise to mitotic spindle defects similar to those reported after HSET knockdown by siRNA transfection ([Kwon et al., 2008]), and this was indeed the case. […] After treatment, the N1E-115 cells formed multipolar spindles due to a lack of centrosome clustering, consistent with HSET inhibition in cells with supernumerary centrosomes (Figure 4C).
[…] Prewarmed 4% paraformaldehyde in PBS was then added to each well to fix the cells before washing with PBS. Permeabilization and blocking was performed by incubating the slides with 1% BSA, 0.3% Triton X-100, 5% goat serum in PBS (PBS/B/0.3%T+5%GS) for 1 hr while shaking them at room temperature (RT). The slides were incubated with primary antibody solutions (mouse monoclonal anti-α-Tubulin [catalog number T9026; Sigma-Aldrich] and rabbit anti-CDK5RAP2 [catalog number A300-554A; Bethyl Laboratories]) at 4°C for 16 hr. […]

With `O=C(O)c1cc(I)ccc1NC(=O)[C@H](Cc1ccccc1)NCc1ccccc1` [CW069] the IC50 ([1]; concentrations up to 250 μM, mean ± SD) was 75 ± 20 µM, the “selectivity for HSET over KSP” value ([1]; from IC50 values, HSET vs KSP) was roughly 4 fold and the mitotic spindle morphology (NHDF cells) was “unchanged compared with control”.
